Assay results published in US10160867B2, “Benzoxaborole-containing coating resistant to cellulose-supportable fungus” (THE PENN STATE RESEARCH FOUNDATION, priority 2015, dated 2018).
≈ marks a conversion by molar mass, not a printed value. Like-named read-outs stand apart in the source and are kept apart here.

How the values were obtained:
Format in all cases: cell-based
[1] = tested on: Alternaria alternata; experiment: 3 day MIC, broth microdilution in 25% PDB; conditions: for MIC: 72 h, read-out: 3 day MIC
Experimental: (§1) Stock solutions (concentrations of between 4,000 μg/mL to 10,000 μg/mL; stored at −18° C.) of the above antifungals were prepared in dimethyl sulfoxide (DMSO). The stock solutions were further diluted into sterile 25% potato dextrose broth (PDB) so that the diluted solutions could be used for the antifungal susceptibility studies. This way, a typical microdilution study would reach a final ratio of about 0.5-2% v/v of DMSO in 25% PDB.
(§2) Spore inocula were prepared in sterile distilled water with 0.1% Tween® 20 (a polysorbate surfactant), and a hemocytometer was used to determine the spore density. Typically, the spore inoculum was prepared fresh prior to each study, and the inoculum was appropriately diluted to a final concentration of 0.4-1×10^5 spores/mL or colony-forming unit (CFU)/mL in each study. The spore suspension can be stored in a refrigerator at 4° C. for up to one week.
(§3) The studies were performed in flat bottom, 96-well microtiter plates (Greiner Bio-One, Frickenhausen, Germany).
(§4) Plates sealed with clear polyester film (VWR, Radnor, Pa.) were incubated at a temperature of about 25° C. The progress of fungal growth was monitored at 48 hours and 72 hours.

[2] = tested on: Penicillium brevicompactum; experiment: 3 day MIC, broth microdilution in 25% PDB; conditions: for MIC: 72 h, read-out: 3 day MIC
Experimental: as §1, §2, §3, §4

[3] = tested on: Penicillium chrysogenum; experiment: 3 day MIC, broth microdilution in 25% PDB; conditions: for MIC: 72 h, read-out: 3 day MIC
Experimental: as §1, §2, §3, §4

[4] = tested on: Penicillium corylophilum; experiment: 3 day MIC, broth microdilution in 25% PDB; conditions: for MIC: 72 h, read-out: 3 day MIC
Experimental: as §1, §2, §3, §4

[5] = tested on: Penicillium purpurogenum; experiment: 3 day MIC, broth microdilution in 25% PDB; conditions: for MIC: 72 h, read-out: 3 day MIC
Experimental: as §1, §2, §3, §4

[6] = tested on: Stachybotrys chartarum; experiment: 3 day MIC, broth microdilution in 25% PDB; conditions: for MIC: 72 h, read-out: 3 day MIC
Experimental: as §1, §2, §3, §4

[7] = tested on: Aspergillus fumigatus; experiment: 3 day MIC, broth microdilution in 25% PDB; conditions: for MIC: 72 h
Experimental: as §1, §2
The minimal inhibitory concentrations (MICs) for individual antifungal agents were determined by following a modified broth microdilution protocol CLSI (Clinical and Laboratory Standards Institute) M38-A2 [Clinical and Laboratory Standards Institute (2008) Reference method for broth dilution antifungal susceptibility testing of filamentous fungi—2nd edition: Approved Standard M38-A2, CLSI, Wayne, Pa.] where 25% potato dextrose broth (PDB) was used as the medium. The studies were performed in flat bottom, 96-well microtiter plates (Greiner Bio-One, Frickenhausen, Germany).
as §4

[8] = tested on: Alternaria alternata; experiment: Fungus resistance test after painting over fungal growth (defacement rating); conditions: painted over fungal growth
Description: (§5) In this series of experiments, fungal growth was allowed to cover a painted surface (surface containing 2 coats of the unaltered paint) to a defacement rating of 3-5, forming a ‘contaminated surface’. […] The paint application was extended approximately 1-2 cm beyond the edge of the disc onto the NSA medium. Each formulation used a separate brush to avoid cross contamination. The re-painted discs were placed back into the humid environment with elevated temperature to encourage fungal growth.
(§6) This test was used to evaluate the ability of paint films containing antifungal additives to prevent the re-emergence of fungal growth after painting over existing growth.
(§7) Olympic® Home interior flat latex paint (PPG Industries, Pittsburgh, Pa.) and Valspar® QuikHide White flat interior paint (Valspar Corporation, Minneapolis, Minn.) were used for the experiments in this study unless specified. Stock solutions of the antifungal additives of interest were prepared in reagent grade dimethyl sulfoxide (DMSO; Alfa Aesar, Ward Hill, Mass.). Additives were spiked (by adding appropriate amounts of the antifungal stock solutions) into the liquid paint at specified concentrations. Samples of additive-spiked paint were vigorously mixed with a vortex mixer for at least one minute to insure uniform dispersion of the additive in the paint. […] Studies that used other brands of paint followed the same protocol as described for those using the Olympic® Home interior flat latex paint.
(§8) Test surfaces were prepared in triplicate. In most cases, the tested conditions were repeated on a different date, again in triplicate. […] Two coats of paint were applied with a polyester brush to completely cover both faces of the filter paper disc, allowing at least four hours drying time between coats.
(§9) Nutrient-Salts Agar (NSA) media was prepared according to ASTM method G21-13 in 100×15 mm sterile polystyrene petri dishes (VWR® Radnor, Pa.) with a solidified agar layer from 3 to 6 mm (⅛ to ¼ in.) in depth. The agar was allowed to solidify for at least 24 hours before being used. The painted test filter paper discs were placed in the center of the agar plates in a biosafety hood while wearing clean nitrile gloves.
(§10) The paint coatings were evaluated against three representative fungi: Stachybotrys chartarum, Penicillium chrysogenum, and Alternaria alternata. […] Fungal isolates of Alternaria alternata and Penicillium chrysogenum were obtained from the Plant Pathology and Environmental Microbiology Department at Penn State University.
(§11) A spore suspension of each of these fungi was prepared by pouring a 20-mL portion of autoclaved deionized water containing 0.01% Tween® 20 onto a subculture of each fungal species. Spores were counted with the use of a hemocytometer (Hausser Scientific, Horsham, Pa.) under a microscope. Spore suspensions of Stachybotrys chartarum and Penicillium chrysogenum were diluted to 1×10^6 spores/mL with autoclaved deionized water. Spore suspensions of Alternaria alternata were used “as is” in the range of 200,000 to 400,000 spores/mL.
(§12) Painted test surfaces were inoculated with a spray bottle or with a cotton-tipped applicator. To inoculate the sample with a spray bottle, the spore suspension was sprayed twice on the painted test discs with a spray bottle that delivered approximately 0.14 g of fluid per spray. To inoculate the sample with a cotton-tipped applicator, an autoclaved cotton-tipped applicator was submerged in approximately 400 μL of the inoculum solution and applied evenly over the surface of the painted test surface twice.

[9] = tested on: Penicillium chrysogenum; experiment: as above; conditions: painted over fungal growth, +200 μg/mL in Valspar QuikHide paint
Description: as §5, §6, §7, §8, §9, §10, §11, §12

[10] = tested on: Stachybotrys chartarum; experiment: as above; conditions: painted over fungal growth
Description: as §5, §6, §7, §8, §9, §10, §11, §12

[11] = Penicillium purpurogenum, 25% PDB
[12] = +100 μg/mL in Olympic Home paint, 7 days
[13] = +100 μg/mL in Olympic Home paint, 14 days
[14] = +100 μg/mL in Olympic Home paint, 21 days
[15] = +200 μg/mL in Olympic Home paint, 7 days
[16] = +200 μg/mL in Olympic Home paint, 14 days
[17] = +200 μg/mL in Olympic Home paint, 21 days

SMILES	MIC ([1]; 25% PDB)	MIC ([2]; 25% PDB)	MIC ([3]; 25% PDB)	MIC ([4]; 25% PDB)	MIC [5, 11]	MIC ([6]; 25% PDB)	MIC [7]	Average defacement rating ± standard deviation [8, 12]	Average defacement rating ± standard deviation [8, 13]	Average defacement rating ± standard deviation [8, 14]	Average defacement rating ± standard deviation ([9]; 7 days)	Average defacement rating ± standard deviation ([9]; 14 days)	Average defacement rating ± standard deviation ([9]; 21 days)	Average defacement rating ± standard deviation [10, 12]	Average defacement rating ± standard deviation [10, 13]	Average defacement rating ± standard deviation [10, 14]	3 day MIC ([6]; 25% PDB)	further results
O=C1C2CC=CCC2C(=O)N1SC(Cl)(Cl)Cl (centres unmarked) [Captan]	1.6 µg/mL (≈ 5.32 µM)	0.78 µg/mL (≈ 2.59 µM)	0.78 µg/mL (≈ 2.59 µM)	0.78 µg/mL (≈ 2.59 µM)	0.78 µg/mL (≈ 2.59 µM)	0.39 µg/mL (≈ 1.3 µM)	12.5 µg/mL (≈ 41.6 µM)	3.6 ± 3.9 (9)	2.5 ± 4.0 (9)	2.4 ± 3.8 (9)	0.0 ± 0.0 (9)	0.0 ± 0.0 (9)	0.0 ± 0.0 (9)	0.0 ± 0.0 (6)	0.0 ± 0.0 (6)	0.0 ± 0.0 (6)		
N#Cc1c(Cl)c(Cl)c(Cl)c(C#N)c1Cl [Chlorothalonil, chlorothalonil]	0.78 µg/mL (≈ 2.93 µM)	< 0.1 µg/mL	< 0.1 µg/mL	0.39 µg/mL (≈ 1.47 µM)	0.78 µg/mL (≈ 2.93 µM)	< 0.1 µg/mL	0.2 µg/mL (≈ 0.752 µM)				0.0 ± 0.0 (9)	0.0 ± 0.0 (9)	0.0 ± 0.0 (9)	2.2 ± 2.1 (9)	2.0 ± 1.7 (9)	2.0 ± 1.7 (9)	<0.1 µg/mL	Average defacement rating ± standard deviation ([8]; +1000 μg/mL in Olympic Home paint, 7 days): 0.5 ± 1.4 (9); Average defacement rating ± standard deviation ([8]; +1000 μg/mL in Olympic Home paint, 14 days): 0.2 ± 0.5 (9); Average defacement rating ± standard deviation ([8]; +1000 μg/mL in Olympic Home paint, 21 days): 0.1 ± 0.3 (9)
OB1OCc2cc(Cl)ccc21 [Compound B8, 5-chloro-1,3-dihydro-2,1-benzoxaborol-1-ol]	3.1 µg/mL (≈ 18.4 µM)	0.4 µg/mL (≈ 2.38 µM)		0.78 µg/mL (≈ 4.63 µM)	1.56 µg/mL (≈ 9.26 µM)	0.13 µg/mL (≈ 0.772 µM)	0.5 µg/mL (≈ 2.97 µM)		3.4 ± 2.9 (9)	3.0 ± 2.8 (9)	2.3 ± 0.6 (9)	0.0 ± 0.0 (9)	0.0 ± 0.0 (9)	7.0 ± 1.9 (9)	6.4 ± 2.6 (9)			Average defacement rating ± standard deviation [8, 15]: 9.3 ± 1.2 (3); Average defacement rating ± standard deviation [8, 16]: 7.3 ± 2.9 (3); Average defacement rating ± standard deviation [8, 17]: 3.0 ± 0.9 (3)
OB1OCc2cc(F)ccc21 [Compound B9, 5-Fluoro-1,3-dihydro-2,1-benzoxaborol-1-ol]	1.6 µg/mL (≈ 10.5 µM)	0.2 µg/mL (≈ 1.32 µM)		0.39 µg/mL (≈ 2.57 µM)	0.78 µg/mL (≈ 5.13 µM)	0.13 µg/mL (≈ 0.856 µM)	0.5 µg/mL (≈ 3.29 µM)		5.1 ± 2.1 (12)	4.6 ± 2.2 (12)	8.7 ± 1.0 (9)	2.6 ± 3.1 (9)	0.0 ± 0.0 (9)	7.2 ± 2.6 (9)	1.3 ± 3.0 (9)	1.0 ± 2.8 (9)		Average defacement rating ± standard deviation [8, 15]: 9.7 ± 0.6 (3); Average defacement rating ± standard deviation [8, 16]: 7.0 ± 4.4 (3); Average defacement rating ± standard deviation [8, 17]: 6.3 ± 5.5 (3); Average defacement rating ± standard deviation ([10]; +10 μg/mL in Olympic Home paint, 7 days): 0.3 ± 0.6 (3); Average defacement rating ± standard deviation ([10]; +10 μg/mL in Olympic Home paint, 14 days): 0.0 ± 0.0 (3); Average defacement rating ± standard deviation ([10]; +10 μg/mL in Olympic Home paint, 21 days): 0.0 ± 0.0 (3)
CCCCNC(=O)OCC#CI [IPBC, 3-Iodo-2-propynylbutylcarbamate]								5.9 ± 2.9 (9)	3.1 ± 2.4 (9)	3.0 ± 2.5 (9)	6.9 ± 3.8 (9)	4.8 ± 4.0 (9)	3.1 ± 3.4 (9)	1.2 ± 1.3 (9)	0.0 ± 0.0 (9)	0.0 ± 0.0 (9)	0.8 µg/mL	3 day MIC ([1]; 25% PDB): 0.8 µg/mL; 3 day MIC ([2]; 25% PDB): 0.4 µg/mL; 3 day MIC ([3]; 25% PDB): 0.2 µg/mL; 3 day MIC ([4]; 25% PDB): 0.20 µg/mL; 3 day MIC [5, 11]: <0.1 µg/mL; 3 day MIC [7]: 0.4 µg/mL
CCCCCCCCn1sccc1=O [OIT, 2-Octyl-4-isothiazolin-3-one]	200 µg/mL (≈ 937 µM)	< 0.1 µg/mL	< 0.1 µg/mL	< 0.1 µg/mL	< 0.1 µg/mL	0.1 µg/mL (≈ 0.469 µM)		0.3 ± 0.5 (6)	0.0 ± 0.0 (6)	0.0 ± 0.0 (6)	3.6 ± 2.8 (9)	3.0 ± 3.7 (9)	2.3 ± 40.0 (9)	4.6 ± 3.2 (9)	3.6 ± 3.7 (9)	3.0 ± 3.7 (9)		
Oc1cc(Cl)ccc1Oc1ccc(Cl)cc1Cl [Triclosan, triclosan]								3.6 ± 3.5 (9)	2.6 ± 3.7 (9)	2.0 ± 2.9 (9)	0.9 ± 2.7 (9)	0.0 ± 0.0 (9)	0.0 ± 0.0 (9)	0.7 ± 1.2 (9)	0.7 ± 1.2 (9)	0.6 ± 1.0 (9)	<0.1 µg/mL	MIC [1]: 6.3 µg/mL (≈ 21.8 µM); MIC [2]: 3.1 µg/mL (≈ 10.7 µM); MIC [3]: 6.3 µg/mL (≈ 21.8 µM); MIC [4]: 3.13 µg/mL (≈ 10.8 µM); MIC ([5]; Penicillium): 3.13 µg/mL (≈ 10.8 µM); MIC [6]: < 0.1 µg/mL
